# Experimental data: patent US9346769B2, “Tetrazolones as inhibitors of fatty acid synthase” (Infinity Pharmaceuticals, Inc., priority 2010, dated 2016)
# Target: T1, human FASN (Homo sapiens, UniProt P49327)
# T1 construct: was purified from SKBR3 cells using procedures modified from those in Jayakumar et al; endogenous in cells; host or cells: SKBR3 human breast cancer cells (ATCC); Endogenous enzyme purified by ammonium sulfate precipitation and a mono Q column
# Assay: FASN Scintillation Proximity Flashplate Assay
# Format: biochemical
# Conditions: human FASN purified from SKBR3 cells; unstarred symbols
# Protocol: Human FASN protein (SEQ ID NO. 1) was purified from SKBR3 cells using procedures modified from those in Jayakumar et al. PNAS 1995, 92:8695-8699. SKBR3 cells were obtained from ATCC and grown in DMEM high glucose medium supplemented with 10% FBS, 1 μg/mL bovine pancreas insulin, 100 U/mL penicillin and 100 µg/mL streptomycin. The confluent cells were trypsinized and washed three times with PBS buffer before frozen in liquid N2 and stored at −80° C. Frozen cells were thawed on ice and resuspended in lysis buffer (25 mM Tris-HCl, pH 7.0, 15 mM NaCl, 1 mM EDTA, and 1 mM DTT) with protease inhibitors. The cells were lysed by sonication, and the cell debris was removed by centrifugation at 20,000 rpm for 30 min. To the supernatant, neutralized saturated ammonium sulfate solution was added to a final concentration of 35%. The solution was left on ice for 1 hr, and the precipitated proteins were harvested by centrifugation at 20,000 rpm for 30 min. The proteins were redissolved in lysis buffer without NaCl and loaded on a mono Q column. Bound proteins were eluted with a linear gradient of NaCl in lysis buffer. Each fraction was analyzed by SDS-PAGE and FASN NADPH consumption assay. The fractions containing FASN were pooled and concentrated to 2-3 mg/mL. Glycerol was added to 20%, and the protein was frozen in liquid N2 and stored at −80° C.
# Acetyl-coenzyme A, malonyl-coenzyme A, NADPH, bovine gamma globulin, and ORLISTAT were purchased from Sigma (St. Louis, Mo.). Tris(2-carboxyethyl) phosphine hydrochloride (TCEP) was purchased from Pierce Biotechnologies (Rockford, Ill.). [^3H]-acetyl-coenzyme A was purchased from Moravek Biochemicals (Brea, CA). FlashPlate™ PLUS phospholipid 96-well scintillant coated microplates were purchased from Perkin Elmer Life and Analytical Sciences (Shelton, CT). The method of the FASN Scintillation Proximity FlashPlate assay is similar to that described in Weiss and Glickman Assay Drug Dev Technol 2003, 1:161-6. In a 96-well polypropylene microplate, a dilution series (typical concentrations 60 nM-1.0 mM) of test compounds were prepared in DMSO followed by a 20-fold dilution into FASN assay buffer (50 mM potassium phosphate, pH 7.0, 1.0 mM EDTA, 0.01% NP-40), of which 5.0 μL each was transferred to a FlashPlate® PLUS 96-well plate and mixed with 35 μL FASN assay buffer plus 0.5 mg/mL bovine gamma globulin and 1 mM TCEP. FASN protein (10 μL, 10 nM) was added per well, and the microplate was incubated at 37° C. for 30 min. 10 μL of 20 mM NADPH was added, and the reaction was initiated by addition of […] substrate mixture to final concentrations of 1 nM FASN, 100 μM acetyl-coenzyme A, 6 μCi [^3H]-acetyl-coenzyme A, 300 μM malonyl-coenzyme A, 2 mM NADPH, 0.5 mg/mL bovine gamma globulin, and 1 mM TCEP in a volume of 100 μL per well. Assay plates were incubated for 2 hr at 37° C. and the reaction was stopped with 2 μL of 2.5 mM stock solution of ORLISTAT in DMSO to ˜50 μM. The plates were read in a Wallac 1450 Microbeta Plus liquid scintillation counter (Perkin Elmer, Waltham, Mass.), and counts per minute (CPM) were collected over 2 min. Each inhibitor well CPM was compared to the maximum FASN enzyme activity (Max) CPM and the background (Min) CPM, as measured by omission of FASN enzyme in the background well. % Inhibition values were calculated, and curves were fitted by a four-parameter logistic function to yield IC50 values:
# Compounds were assayed as inhibitors of human FASN using the above-described FASN Scintillation Proximity Flashplate Assay (IC50; nM) or FASN NADPH Consumption Assay (*) (IC50; nM). The corresponding activity of the isolated compound is also provided along with the measured mass (ES^+).
# T1 sequence (P49327 whole entry): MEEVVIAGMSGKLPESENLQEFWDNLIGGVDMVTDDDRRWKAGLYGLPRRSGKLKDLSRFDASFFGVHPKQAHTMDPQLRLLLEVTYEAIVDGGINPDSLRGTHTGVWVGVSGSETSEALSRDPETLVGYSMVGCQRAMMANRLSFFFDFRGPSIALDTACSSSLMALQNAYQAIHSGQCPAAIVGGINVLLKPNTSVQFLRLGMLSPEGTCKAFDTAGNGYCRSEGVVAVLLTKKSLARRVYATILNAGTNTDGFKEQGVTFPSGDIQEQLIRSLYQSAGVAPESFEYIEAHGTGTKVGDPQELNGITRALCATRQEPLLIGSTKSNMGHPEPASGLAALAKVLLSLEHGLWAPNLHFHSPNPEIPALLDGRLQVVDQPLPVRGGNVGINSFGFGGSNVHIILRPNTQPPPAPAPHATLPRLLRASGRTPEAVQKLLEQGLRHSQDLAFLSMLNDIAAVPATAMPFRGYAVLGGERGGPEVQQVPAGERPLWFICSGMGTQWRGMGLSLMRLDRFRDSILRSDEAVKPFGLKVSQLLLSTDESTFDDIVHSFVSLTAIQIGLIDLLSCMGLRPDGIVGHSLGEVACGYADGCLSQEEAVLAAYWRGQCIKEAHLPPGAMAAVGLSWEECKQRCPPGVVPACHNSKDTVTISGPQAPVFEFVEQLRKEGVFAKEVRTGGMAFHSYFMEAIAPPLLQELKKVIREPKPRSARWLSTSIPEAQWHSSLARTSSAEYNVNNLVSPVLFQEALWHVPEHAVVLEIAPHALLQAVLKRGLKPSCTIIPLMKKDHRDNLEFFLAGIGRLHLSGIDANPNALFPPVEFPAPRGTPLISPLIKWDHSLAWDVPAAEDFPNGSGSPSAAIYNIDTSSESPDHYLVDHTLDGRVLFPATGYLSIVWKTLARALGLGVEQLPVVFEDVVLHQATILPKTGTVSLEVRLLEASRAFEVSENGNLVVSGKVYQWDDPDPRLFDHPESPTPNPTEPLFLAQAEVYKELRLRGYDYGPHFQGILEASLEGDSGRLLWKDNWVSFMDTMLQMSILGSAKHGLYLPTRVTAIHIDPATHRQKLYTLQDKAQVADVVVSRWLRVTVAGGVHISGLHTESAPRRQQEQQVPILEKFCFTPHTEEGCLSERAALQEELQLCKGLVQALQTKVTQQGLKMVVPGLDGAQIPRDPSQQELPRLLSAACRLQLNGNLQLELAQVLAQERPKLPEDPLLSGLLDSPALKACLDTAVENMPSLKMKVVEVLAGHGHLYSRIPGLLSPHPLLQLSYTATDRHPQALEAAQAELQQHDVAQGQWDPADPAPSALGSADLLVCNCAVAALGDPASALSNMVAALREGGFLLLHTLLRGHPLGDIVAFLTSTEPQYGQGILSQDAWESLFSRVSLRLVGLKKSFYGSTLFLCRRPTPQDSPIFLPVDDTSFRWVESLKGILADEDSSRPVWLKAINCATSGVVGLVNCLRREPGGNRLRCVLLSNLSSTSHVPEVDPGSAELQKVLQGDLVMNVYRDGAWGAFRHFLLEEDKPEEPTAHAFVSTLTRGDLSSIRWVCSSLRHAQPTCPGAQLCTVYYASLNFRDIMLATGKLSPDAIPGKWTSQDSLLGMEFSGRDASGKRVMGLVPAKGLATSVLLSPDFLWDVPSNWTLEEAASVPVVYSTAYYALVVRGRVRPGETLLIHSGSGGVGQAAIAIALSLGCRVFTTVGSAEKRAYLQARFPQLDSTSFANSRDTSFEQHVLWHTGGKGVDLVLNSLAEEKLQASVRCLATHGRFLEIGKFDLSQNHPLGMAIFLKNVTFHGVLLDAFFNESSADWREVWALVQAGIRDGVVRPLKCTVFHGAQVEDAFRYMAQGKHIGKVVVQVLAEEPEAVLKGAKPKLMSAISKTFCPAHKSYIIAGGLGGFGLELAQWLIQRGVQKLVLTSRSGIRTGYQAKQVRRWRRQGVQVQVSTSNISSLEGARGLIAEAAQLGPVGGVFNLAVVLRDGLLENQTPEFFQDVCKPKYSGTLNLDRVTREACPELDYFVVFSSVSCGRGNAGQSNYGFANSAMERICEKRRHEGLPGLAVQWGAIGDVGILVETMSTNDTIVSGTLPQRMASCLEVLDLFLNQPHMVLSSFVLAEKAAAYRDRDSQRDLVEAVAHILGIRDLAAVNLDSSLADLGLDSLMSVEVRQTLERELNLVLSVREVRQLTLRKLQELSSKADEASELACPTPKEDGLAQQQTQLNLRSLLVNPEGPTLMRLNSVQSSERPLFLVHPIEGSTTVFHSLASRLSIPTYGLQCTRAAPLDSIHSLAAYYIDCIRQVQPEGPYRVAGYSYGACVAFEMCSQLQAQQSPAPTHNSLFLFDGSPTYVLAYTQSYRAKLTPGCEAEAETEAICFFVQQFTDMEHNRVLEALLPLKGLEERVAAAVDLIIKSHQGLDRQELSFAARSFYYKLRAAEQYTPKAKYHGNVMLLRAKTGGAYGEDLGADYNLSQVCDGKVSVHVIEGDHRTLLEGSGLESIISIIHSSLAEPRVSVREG
row,Structure (SMILES),IC50
1,CN(Cc1cccc2ccccc12)C(=O)n1nnn(-c2c(F)cccc2F)c1=O,100 to 200 nM
2,CCN(C(=O)n1nnn(-c2c(F)cccc2C(=O)N2CCCCC2)c1=O)c1ccccc1Oc1ccccc1,100 to 200 nM
3,CCN(C(=O)n1nnn(-c2c(F)cccc2OC)c1=O)c1cc(Oc2ccc(C(=O)OCc3ccccc3)cc2)ccc1C,200 to 5000 nM
4,CN(C)N(C(=O)n1nnn(-c2ccccc2Cl)c1=O)C1CCCC1,200 to 5000 nM
5,COc1cccc(F)c1-n1nnn(C(=O)N(c2ccccc2)C2CCOCC2)c1=O,15 to 100 nM
6,COc1ccc(N(C(=O)n2nnn(-c3c(F)cccc3C(=O)N(C)C)c2=O)C(C)C)cc1C(=O)O,200 to 5000 nM
7,COc1ccc(C(=O)OCc2ccccc2)cc1N(C(=O)n1nnn(-c2c(F)cccc2OC)c1=O)C(C)C,15 to 100 nM
8,CN(C)N(C(=O)n1nnn(-c2ccccc2Br)c1=O)C1=CCCC1,15 to 100 nM
9,COc1cccc(F)c1-n1nnn(C(=O)N(c2cccc(F)c2)C(C)(C)C)c1=O,200 to 5000 nM
10,CN(C)N(C(=O)n1nnn(-c2ccccc2Cl)c1=O)/C1=C/CCCCCC1,200 to 5000 nM
11,COc1ccc(N(C(=O)n2nnn(-c3c(F)cccc3OC)c2=O)C(C)C)cc1C(=O)O,15 to 100 nM
12,O=C(N1Cc2cccc3cccc(c23)C1)n1nnn(-c2c(F)cccc2F)c1=O,15 to 100 nM
13,COc1cccc(F)c1-n1nnn(C(=O)N(CC(C)(C)C)c2cccc(C(=O)OCc3ccccc3)c2)c1=O,15 to 100 nM
14,CCN(C(=O)n1nnn(-c2c(F)cccc2C(=O)NCc2ccccc2)c1=O)c1ccccc1Oc1ccccc1,15 to 100 nM
15,CCN(C(=O)n1nnn(-c2c(F)cccc2F)c1=O)c1ccc(OC)c(C(=O)O)c1,15 to 100 nM
16,CCN(C(=O)n1nnn(-c2c(F)cccc2OC)c1=O)c1ccc(C(=O)O)c(OC)c1,15 to 100 nM
17,CCN(C(=O)n1nnn(-c2c(Cl)cccc2Cl)c1=O)c1cccc(C(=O)O)c1,15 to 100 nM
18,CCN1CCN(c2ccc(N(C(=O)n3nnn(-c4c(F)cccc4F)c3=O)C3CCCCC3)cc2C(=O)O)CC1,15 to 100 nM

row,Structure (SMILES),IC50
1,CN(C)N(C(=O)n1nnn(-c2ccccc2F)c1=O)C1=CCCC1,100 to 200 nM
2,CCN(C(=O)n1nnn(-c2ccccc2OC)c1=O)c1ccc(C(=O)OCc2ccccc2)cc1,15 to 100 nM
3,CC(C)N(C(=O)n1nnn(-c2c(F)cccc2F)c1=O)c1cccc(C(=O)O)c1,15 to 100 nM
4,CCN(C(=O)n1nnn(-c2c(F)cccc2OC)c1=O)c1cc(C(=O)O)ccc1OC(C)C,15 to 100 nM
5,COc1ccc(N(C(=O)n2nnn(-c3c(F)cccc3N3CCOCC3)c2=O)C2CCCCC2)cc1C(=O)O,15 to 100 nM
6,CCN(C(=O)n1nnn(-c2c(F)cccc2C(=O)N2CCOCC2)c1=O)c1ccccc1Oc1ccccc1,200 to 5000 nM
7,O=C(N(c1ccccc1)C1CCCCC1)n1nnn(-c2c(F)cccc2F)c1=O,< 15 nM
8,CCN(C(=O)n1nnn(-c2c(F)cccc2F)c1=O)c1cc(C(=O)O)ccc1OC(C)C,15 to 100 nM
9,CCN(C(=O)n1nnn(-c2c(Cl)cccc2Cl)c1=O)c1ccc(Cl)c(C(=O)OCc2ccc(OC)cc2)c1,< 15 nM
10,COc1ccc(COC(=O)[C@H]2CC[C@H](N(C(=O)n3nnn(-c4c(F)cccc4OC)c3=O)c3ccccc3)CC2)cc1,15 to 100 nM
11,COc1cc(OC)c(N(C(=O)n2nnn(-c3c(F)cccc3F)c2=O)C(C)C)cc1C(=O)O,15 to 100 nM
12,CC(C)N(C(=O)n1nnn(-c2c(F)cccc2F)c1=O)c1ccc(N(S(C)(=O)=O)S(C)(=O)=O)c(C(=O)OCc2ccccc2)c1,< 15 nM
13,O=C(O)c1cc(N(C(=O)n2nnn(-c3c(F)cccc3F)c2=O)C2CCCCC2)ccc1N1CCOCC1,15 to 100 nM
14,COc1ccc(C(=O)O)cc1N(C(=O)n1nnn(-c2c(F)cccc2OC)c1=O)C(C)C,< 15 nM
15,CS(=O)(=O)N1CCN(c2ccc(N(C(=O)n3nnn(-c4c(F)cccc4F)c3=O)C3CCCCC3)cc2C(=O)O)CC1,< 15 nM
16,CN(C)N(C(=O)n1nnn(-c2c(F)cccc2F)c1=O)C1=CCCC1,15 to 100 nM
17,CC(C)N(C(=O)n1nnn(-c2c(F)cccc2F)c1=O)c1ccc(NC(=O)OC(C)(C)C)c(C(=O)O)c1,< 15 nM

# More lines, now with the values ahead:
row,IC50,Structure (SMILES)
1,< 15 nM,O=C(N1CCCc2cccc(F)c21)n1nnn(-c2c(F)cccc2F)c1=O
2,< 15 nM,CC(C)N(C(=O)n1nnn(-c2c(F)cccc2F)c1=O)c1ccc(C(=O)OCc2ccccc2)cc1F
3,< 15 nM,CCN(C(=O)n1nnn(-c2c(F)cccc2F)c1=O)c1ccc(N)cc1F
4,< 15 nM,COc1ccc(N(C(=O)n2nnn(-c3c(F)cccc3C(=O)N3CCOCC3)c2=O)C(C)C)cc1C(=O)OCc1ccccc1
5,< 15 nM,COc1ccc(N(C(=O)n2nnn(-c3c(F)cccc3F)c2=O)C2CCCCC2)c(OC)c1C(=O)OCc1ccccc1
6,< 15 nM,CCN(C(=O)n1nnn(-c2c(F)cccc2F)c1=O)c1ccccc1F
7,< 15 nM,COc1ccc(C(=O)O)cc1N(C(=O)n1nnn(-c2c(F)cccc2OC)c1=O)C1CCCCC1
8,< 15 nM,COc1ccc(C(=O)O)cc1N(C(=O)n1nnn(-c2c(F)cccc2F)c1=O)C(C)C
9,< 15 nM,CCN(C(=O)n1nnn(-c2c(F)cccc2C(=O)NCc2ccccc2)c1=O)c1ccccc1
10,< 15 nM,CCN(C(=O)n1nnn(-c2c(Cl)cccc2Cl)c1=O)c1ccc(C(=O)O)cc1Cl
11,< 15 nM,O=C(O)c1ccc(N(C(=O)n2nnn(-c3c(F)cccc3F)c2=O)C2CCCCC2)c(Oc2ccccc2)c1
12,< 15 nM,COc1cc(C(=O)O)cc(N(C(=O)n2nnn(-c3c(F)cccc3F)c2=O)C(C)C)c1
13,< 15 nM,COCCOCOc1ccc(N(C(=O)n2nnn(-c3c(F)cccc3F)c2=O)C2CCCCC2)cc1C(=O)OCc1ccccc1
14,< 15 nM,CCN(C(=O)n1nnn(-c2c(F)cccc2F)c1=O)c1c(F)cccc1F
15,< 15 nM,COc1cc(N(C(=O)n2nnn(-c3c(F)cccc3F)c2=O)C(C)C)ccc1C(=O)O
16,< 15 nM,CNC(=O)c1cc(N(C(=O)n2nnn(-c3c(F)cccc3F)c2=O)C2CCCCC2)ccc1OC
17,< 15 nM,COc1ccc(N(C(=O)n2nnn(-c3c(F)cccc3OC)c2=O)C2CCCCC2)cc1C(=O)O
18,< 15 nM,CCN(C(=O)n1nnn(-c2c(F)cccc2F)c1=O)c1ccc(NC(C)=O)cc1F
19,< 15 nM,CCOC(=O)N1CCN(c2ccc(N(C(=O)n3nnn(-c4c(F)cccc4F)c3=O)C3CCCCC3)cc2C(=O)O)CC1
20,< 15 nM,CCN(C(=O)n1nnn(-c2c(F)cccc2F)c1=O)c1ccc(C(=O)O)c(OC)c1
21,< 15 nM,CC(C)N(C(=O)n1nnn(-c2c(F)cccc2F)c1=O)c1cc(C(=O)O)ccc1Oc1ccccc1
22,< 15 nM,CCC(C)N(C(=O)n1nnn(-c2c(F)cccc2OC)c1=O)c1cccc(C(=O)OCc2ccccc2)c1 (centres unmarked)
23,< 15 nM,CC(C)N(C(=O)n1nnn(-c2c(F)cccc2F)c1=O)c1ccc(Cl)c(C(=O)OCc2ccccc2)c1
24,< 15 nM,O=C(OCc1ccccc1)c1cc(N(C(=O)n2nnn(-c3c(F)cccc3F)c2=O)C2CCCCC2)ccc1NCc1ccccc1
25,< 15 nM,COc1ccc(C(=O)O)cc1N(C(=O)n1nnn(-c2c(F)cccc2F)c1=O)C1CCCCC1
26,< 15 nM,CCN(C(=O)n1nnn(-c2ccccc2Oc2ccccc2)c1=O)c1ccc(C(=O)O)cc1
27,< 15 nM,COc1ccc(N(C(=O)n2nnn(-c3ccccc3OC)c2=O)C(C)C)cc1C(=O)OCc1ccccc1
28,< 15 nM,COCCOc1ccc(N(C(=O)n2nnn(-c3c(F)cccc3F)c2=O)C2CCCCC2)cc1C(=O)O
29,< 15 nM,COc1ccc(N(C(=O)n2nnn(-c3c(F)cccc3OC)c2=O)C2CCCC2)cc1C(=O)OCc1ccccc1
30,< 15 nM,COc1ccc(N(C(=O)n2nnn(-c3c(F)cccc3OC)c2=O)C(C)C)cc1C(=O)OCc1ccccc1
